Source: US20220151989A1, “LIPOIC ACID PRODRUG” (SANTEN PHARMACEUTICAL CO., LTD., priority 2019, published 2022)

How the values were obtained:
lens elasticity [1] = assay: Pharmacological Test-1: lens elasticity after instillation 3 times per day for 12 to 15 days; format: in vivo, C57BL/6J mice; settings: for Lens elasticity improvement: 0.03% (w/v) solution, 2.5 μL/eye, right eye, 3 times per day for 12 to 15 days, 8-month-old mice, vs vehicle control; for lens elasticity improving effect: at a concentration of 0.03%
Description: The effects of compounds 1 to 4 on the lens elasticity were examined. The tests were conducted with reference to the methods described in Invest Ophthalmol Vis Sci, 57, 2851-2863, 2016.
A vehicle (aqueous solution) comprising 0.1% (w/v) of ethyl pyruvate, 0.269% (w/v) of sodium dihydrogenphosphate monohydrate (NaH2PO4.H2O), 0.433% (w/v) of di sodium hydrogenphosphate (Na2HPO4), 0.2% (w/v) of hydroxypropyl methylcellulose, 0.5% (w/v) of NaCl, 1.0% (w/v) of polyoxyl 35 castor oil (hereinafter also referred to as “CO35”), and purified water (appropriate amount) was prepared.
Each of compounds 1 to 4 was stirred with the addition of the vehicle to give a 0.03% (w/v) solution.
EV06 was stirred with the addition of the vehicle to give a 0.03% (w/v) solution. (Test method) 1) Each test sample (2.5 μL/eye) was instilled into the right eye of 8-month-old C57BL/6J mice with a Pipetman 3 times per day (around 9:00, 13:00, 17:00) for 12 to 15 days. 2) After the final instillation, the mice were euthanized by carbon dioxide inhalation, and then the eyeballs were extracted and rinsed with Hank's balanced salt solution (HESS). 3) The sclera near the optic nerve was cut with a razor, the lens was removed through the incision, and the removed lens was immersed in HESS. 4) The lens was placed on a glass slide, and an all-in-one fluorescence microscope BZ-9000 (Keyence) was used to capture an image of the lens (Image a). 5) Next, one cover glass (Corning^registered trade mark) 22×22 mm Square) was placed on the lens, and an image in which the thickness of the lens changed due to the weight was similarly captured (Image b). 6) A change in the lens diameter was calculated from the following Equation 1 wherein the lens diameter of Image a is subtracted from the lens diameter of Image b. Then, the lens elasticity improvement of each sample group compared with the vehicle control group was calculated from Equation 2 described below. The mean value of the vehicle control group was based on 5 eyes, the mean value of each of the sample groups of compounds 1 to 4 was based on 10 eyes, and the mean value of EV06 sample group was based on 9 eyes.
(§1) Change in lens diameter=Lens diameter in Image b of each test sample−Lens diameter in Image a of each test sample (Equation 1)
(§2) Lens elasticity improvement of each sample group=Mean change in lens diameter of each Test sample group−Mean change in lens diameter of Vehicle control group (Equation 2)

lens elasticity [2] = assay: Pharmacological Test-2: lens elasticity at different concentrations, instillation 3 times per day for 12 to 15 days; format: in vivo, C57BL/6J mice; settings: for Lens elasticity improvement: 3 times per day for 12 to 15 days, 7 to 8-month-old mice
Description: The effects of Compounds 1, 3, and 4 on the lens elasticity were investigated at different concentrations.
(§3) Vehicle A (aqueous solution) comprising 0.1% (w/v) of ethyl pyruvate, 0.269% (w/v) of sodium dihydrogenphosphate monohydrate (NaH2PO4.H2O), 0.433% (w/v) of disodium hydrogenphosphate (Na2HPO4), 0.2% (w/v) of hydroxypropyl methylcellulose, 0.5% (w/v) of NaCl, 0.2% (w/v) of 0035, and purified water (appropriate amount) was prepared.
as §3, with “B (emulsion)” for “A (aqueous solution)”, “CO35, 0.6% benzyl benzoate,” for “0035,”
as §3, with “Vehicle C” for “Vehicle A”, “NaCl, 1.0%” for “NaCl, 0.2%”
as §3, with “Vehicle D (emulsion)” for “Vehicle A (aqueous solution)”, “NaCl, 1.0%” for “NaCl, 0.2%”, “of CO35, 3.0% benzyl benzoate,” for “of 0035,”
A diluent (aqueous solution) comprising 0.1% (w/v) of ethyl pyruvate, 0.269% (w/v) of sodium dihydrogenphosphate monohydrate (NaH2PO4.H2O), 0.433% (w/v) of disodium hydrogenphosphate (Na2HPO4), 0.2% (w/v) of hydroxypropyl methylcellulose, 0.5% (w/v) of NaCl, and purified water (appropriate amount) was prepared.
Compound 1 was stirred with the addition of Vehicle C to prepare a 1.5% (w/v) emulsion, and the emulsion was diluted with the diluent to give a 0.3% (w/v) emulsion. Further, the resulting 0.3% (w/v) emulsion was diluted with the diluent to give a 0.03% (w/v) emulsion. Further, the resulting 0.03% (w/v) emulsion was diluted with the diluent to give a 0.003% (w/v) emulsion.
Compound 3 was stirred with the addition of Vehicle C to give a 1.5% (w/v) solution, and the resulting solution was diluted to give a 0.3% (w/v) solution. Further, the resulting 0.3% (w/v) solution was diluted with Vehicle A to give a 0.03% (w/v) solution. Further, the resulting 0.03% (w/v) solution was diluted with Vehicle A to give a 0.003% (w/v) solution.
Compound 4 was stirred with the addition of Vehicle D to give a 1.5% (w/v) emulsion, and the resulting emulsion was diluted with the diluent to prepare a 0.3% (w/v) emulsion. Further, the resulting 0.3% (w/v) emulsion was diluted with the diluent to give a 0.03% (w/v) emulsion. Further, the resulting 0.03% (w/v) emulsion was diluted with the diluent to give a 0.003% (w/v) emulsion.
EV06 was stirred with the addition of Vehicle A to give a 1.5% (w/v) solution, which was used for comparison to the samples of Compound 1 and 3.
EV06 was sonicated with the addition of Vehicle B to give a 1.5% (w/v) emulsion, which was used for comparison to Compound 4 sample.
(Test method) 1) Each test sample (2.5 μL/eye) was instilled into the right eye of 7 to 8-month-old C57BL/6J mice with a Pipetman 3 times per day (around 9:00, 13:00 and 17:00) for 12 to 15 days. 2) After the final instillation, the mice were euthanized by carbon dioxide inhalation, and then the eyeballs were extracted and rinsed with Hank's balanced salt solution (HESS). 3) The sclera near the optic nerve was cut with a razor, the lens was removed through the incision, and the removed lens was immersed in HESS. 4) The lens was placed on a glass slide, and an all-in-one fluorescence microscope BZ-9000 (Keyence) was used to capture an image of the lens (Image a). […]

lens elasticity [3] = assay: Pharmacological Test-3: lens elasticity, Compounds 5 and 6, 3 times per day for 14 days; format: in vivo,  mice; settings: for Lens elasticity improvement: 0.03% (w/v) solution in Vehicle C, both eyes, 3 times per day for 14 days, 9-month-old mice; for lens elasticity improving effect: at a concentration of 0.03%
Description: The effects of Compounds 5 and 6 on the lens elasticity were investigated.
Compound 5 was stirred with the addition of Vehicle C to give a 0.03% (w/v) solution.
Compound 6 was stirred with the addition of Vehicle C to give a 0.03% (w/v) solution.
EV06 was stirred with the addition of Vehicle C to give a 0.03% (w/v) solution, which was used for comparison to the samples of Compounds 5 and 6.
1) Each test sample (2.5 μL/eye) was instilled into both eyes of 9-month-old […] mice with a Pipetman 3 times per day (around 9:00, 13:00 and 17:00) for 14 days. 2) After the final instillation, the mice were euthanized by carbon dioxide inhalation, and then the eyeballs were extracted and rinsed with Hank's balanced salt solution (HESS). 3) The sclera near the optic nerve was cut with a razor, the lens was removed through the incision, and the removed lens was immersed in HESS. 4) The lens was placed on a glass slide, and an all-in-one fluorescence microscope BZ-9000 (Keyence) was used to capture an image of the lens (Image a). 5) Next, one cover glass (Corning^(registered trade mark) 22×22 mm Square) was placed on the lens, and an image in which the thickness of the lens changed due to the weight was similarly captured (Image b). 6) A change in the lens diameter was calculated from the following Equation 1 wherein the lens diameter of Image a is subtracted from the lens diameter of Image b. Then, the lens elasticity improvement of each sample group compared with the vehicle control group was calculated from Equation 2 described below. The mean value of the vehicle control group was based on 8 eyes, and the mean value of each of the sample groups of Compounds 5 and 6 and EV06 was based on 10 eyes.
as §1, §2

C[N+](C)(CCOC(=O)CCCC[C@@H]1CCSS1)Cc1ccccc1.[Cl-] [Compound 2, (R)-2-((5-(1,2-Dithiolan-3-yl)pentanoyl)oxy)-N-benzyl-N,N-dimethylethan-1-aminium chloride]
Lens elasticity improvement (lens elasticity [1]): 6.1 μm | lens elasticity improving effect (lens elasticity [1]): did not show lens elasticity improving effect

O=C(CCCC[C@@H]1CCSS1)OCCN1CCOCC1 [Compound 4, 2-Morpholinoethyl (R)-5-(1,2-dithiolan-3-yl)pentanoate]
Lens elasticity improvement (lens elasticity [1]): 37.5 μm | lens elasticity improving effect (lens elasticity [1]): potent lens elasticity improving effect | Lens elasticity improvement (lens elasticity [2]; 0.003% (w/v) sample): 25.0 μm | Lens elasticity improvement (lens elasticity [2]; 0.03% (w/v) sample): 56.5 μm | lens elasticity improvement compared with 1.5% EV06 group (lens elasticity [2]; 0.03% and 0.3% sample groups): equivalent to or better than 1.5% EV06 group | Lens elasticity improvement (lens elasticity [2]; 0.3% (w/v) sample): 52.9 μm

O=C(CCCC[C@@H]1CCSS1)OC(CN1CCOCC1)CN1CCOCC1 [Compound 5, 1,3-Dimorpholinopropan-2-yl (R)-5-(1,2-dithiolan-3-yl)pentanoate]
Lens elasticity improvement (lens elasticity [3]): 40.7 μm | lens elasticity improving effect (lens elasticity [3]): potent lens elasticity improving effect

Cc1ncc(COC(=O)CCCC[C@@H]2CCSS2)c2c1OC(C)(C)OC2 [Compound 6, (2,2,5-Trimethyl-4H-[1,3]dioxo[5,4-c]pyridin-8-yl)methyl (R)-5-(1,2-dithiolan-3-yl)pentanoate]
Lens elasticity improvement (lens elasticity [3]): 38.1 μm | lens elasticity improving effect (lens elasticity [3]): potent lens elasticity improving effect
